Source: patent publication US20240181000A1, “LGG-DERIVED PEPTIDES AND METHODS OF USE THEREOF” (Ohio State Innovation Foundation, priority 2021, published 2024)
Marks after values point to notes of the source that are not given here. No end group written: not given here.

What was measured:
ST = experiment: Alanine scanning SAR, anti-Salmonella activity; type: cell-based, Salmonella enterica
Experimental: Relative Importance was calculated using formula: (percent growth in analogue-percent growth in original peptide)/(percent growth in DMSO-treated control-percent growth in original peptide)×100.
Structural-activity relationship (SAR) study: Structure activity relationship analysis was used to better determine the important amino acids required for Anti-Salmonella activity of P1 and P2. Alanine scanning libraries of P1 and P2 were synthesized from Genscript (Table 28; (www.genscript.com/alanine_scanning.html) and tested for inhibitory activity as described above. Relative importance [(percent growth in analogue-percent growth in original peptide)/(percent growth in DMSO-treated control-percent growth in original peptide)×100] was used to identify crucial amino acids of each amino acid residue of the peptide. Two independent experiments were conducted to ensure accuracy.

ST membrane = experiment: Confocal microscopy (bacterial cytological profiling); type: cell-based, Salmonella enterica; conditions: 5×MIC, 3 h
Experimental: Mode of action of peptides analyzed through confocal microscopy: To determine the mode of action of P1 and P2, bacterial cytological profiling was conducted using confocal microscopy as described in. […] Incubated bacteria cultures were then centrifuged and re-suspended in 100 μL sterile water. Following suspension, 1 μg/mL of FM4-64 (Invitrogen™ Molecular Probes™) and 5 μM Syto-9 (Invitrogen™ Molecular Probes™) stains were added and incubated for 45 mins […] with 150 rpm. After incubation, the samples were centrifuged, and bacteria was re-suspended in 10 μl sterile water. For microscopic analysis, 3 μL of bacterial suspension was added to glass slides with 1.2% agar and 20% LB media. Untreated ST bacterial culture was used as a control. Leica TCS SP6 confocal scanning microscope (Excitation/emission (nm); FM4-64 (515/640), SYTO-9 (485/498) was used at the Ohio State University's Molecular and Cellular Imaging Center (MCIC; mcic.osu.edu/microscopy).

cecal microbiota = experiment: Cecal microbiome analysis (peptides, APEC infected); type: in vivo, chickens
Experimental: Cecal microbiome analysis: To investigate the impact of peptides (P1, P2, and P3) treatment (50 mg/kg and 100 mg/kg) on cecal microbiome of chickens, 16S rRNA based metagenomic study was conducted as previously described. DNA was extracted from 0.2 g of cecal contents using PureLink™ Microbiome DNA Purification Kit (Thermofisher Scientific) and treated with RNase A (2 μL of 100 mg/mL solution per sample; Qiagen) to remove the RNA. DNA quantity and quality were measured using NanoDrop 2000c Spectrophotometer (Thermo Fisher Scientific). The extracted DNA samples were subjected to 16S rRNA V4-V5 sequencing at molecular and cellular imaging center (MCIC), Ohio Agricultural Research and Development Center (OARDC) (mcic.osu.edu/genomics/illumina-sequencing). Amplicon libraries were prepared using IFU KAPA HiFi HotStart ReadyMixPCR Kit (Roche) and PCR clean-up was performed using Agencourt AMPure XP beads (BECKMAN COULTER Life Sciences). Nextera XT DNA Library Preparation Kit (Illumina) was used to generate Illumina library and sequencing was performed using Illumina MiSeq platform generating paired end 300-bp reads.
For the metagenomic analysis, QIIME (Quantitative Insights into Microbial Ecology) 2 bioinformatics platform (qiime2.org/) was used. Quality control of the raw reads was performed using FastQC 0.11.8 (Babraham Bioinformatics). Trimmomatic-0.33 was used to trim the adaptor and other illumina-specific sequences (www.usadellab.org/cms/?page=trimmomatic). The trimmed sequences (fastq.gz) were then imported into the QIIME 2 as a manifest file format (PairedEndManifestPhred33V2). The feature table construction and additional filtering of the sequences was performed using DADA2. The taxonomic analysis was performed using Naive Bayes classifiers trained on the Silva 132 99% OTUs (silva-132-99-nb-classifier.qza) database. The phylogenetic diversity was analyzed using align-to-tree-mafft-fasttree pipeline and alpha ([…]) were analyzed using core-metrics-phylogenetic pipeline (docs.qiime2.org/2019.7/tutorials/moving-pictures/). The statistical difference (P<0.05) in the taxonomic composition between the peptides treated, PC, and NC groups was determined using Mann-Whitney U test. The alpha and beta diversity were analyzed using Kruskal-Wallis and PERMANOVA tests (P<0.05), respectively.

PDENK [Peptide P2, PDENK]
Relative importance of Asparagine in P2 (ST): 35% | Relative importance of Aspartate in P2 (ST): 82% | Relative importance of Proline in P2 (ST): zero relative importance | Relative importance of glutamic acid in P2 (ST): 77% | Relative importance of lysine in P2 (ST): 32% | ST membrane in confocal microscopy (FM4-64 stain) (ST membrane): little to no red stain present | Beta-diversity (weighted unifrac) vs NC chickens (cecal microbiota; 50 mg/kg): similar | Beta-diversity (weighted unifrac) vs NC chickens (cecal microbiota; 100 mg/kg): significantly (P<0.01) different | Relative abundance Clostridia (cecal microbiota; class, 100 mg/kg): 64.92% | Relative abundance Lachnospiraceae (cecal microbiota; family, 100 mg/kg): 56.10% | Relative abundance Lactobacillaceae (cecal microbiota; family, 100 mg/kg): 1.38% | Relative abundance Leuconostocaceae (cecal microbiota; family, 100 mg/kg, from 0.31%): 0% | Relative abundance Clostridiaceae 1 (cecal microbiota; family, 100 mg/kg, from 0.53%): 0% | Relative abundance (%) Anaerotruncus (cecal microbiota; genus, 50-mg/kg dose): 0.00% | Relative abundance (%) Bacteroides (cecal microbiota; genus, 50-mg/kg dose): 55.87% | Relative abundance (%) Clostridioides (cecal microbiota; genus, 50-mg/kg dose): 0.00% | Relative abundance (%) Clostridium sensu stricto 1 (cecal microbiota; genus, 50-mg/kg dose): 0.00% | Relative abundance (%) Enterococcus (cecal microbiota; genus, 50-mg/kg dose): 1.24% | Relative abundance (%) Erysipelatoclostridium (cecal microbiota; genus, 50-mg/kg dose): 3.84^a % | Relative abundance (%) Escherichia-Shigella (cecal microbiota; genus, 50-mg/kg dose): 4.95% | Relative abundance (%) Flavonifractor (cecal microbiota; genus, 50-mg/kg dose): 0.68% | Relative abundance (%) Lachnospiraceae (uncultured) (cecal microbiota; genus, 50-mg/kg dose): 2.30% | Relative abundance (%) Oscillibacter (cecal microbiota; genus, 50-mg/kg dose): 0.00% | Relative abundance (%) Pediococcus (cecal microbiota; genus, 50-mg/kg dose): 0.74% | Relative abundance (%) Ruminiclostridium 5 (cecal microbiota; genus, 50-mg/kg dose): 0.23% | Relative abundance (%) Ruminiclostridium 9 (cecal microbiota; genus, 50-mg/kg dose): 1.25% | Relative abundance (%) Ruminococcus gnavus group (cecal microbiota; genus, 50-mg/kg dose): 0.00% | Relative abundance (%) Ruminococcus torques group (cecal microbiota; genus, 50-mg/kg dose): 9.83% | Relative Abundance (%) Blautia (cecal microbiota; genus, 100-mg/kg dose): 0.00% | Relative Abundance (%) Caproiciproducens (cecal microbiota; genus, 100-mg/kg dose): 0.00% | Relative Abundance (%) Lactobacillus (cecal microbiota; genus, 100-mg/kg dose): 0.00% | Relative Abundance (%) Sellimonas (cecal microbiota; genus, 100-mg/kg dose): 0.00^b % | Relative Abundance (%) [Clostridium] innocuum group (cecal microbiota; genus, 100-mg/kg dose): 0.00^b % | Relative Abundance (%) [Eubacterium] coprostanoligenes group (cecal microbiota; genus, 100-mg/kg dose): 0.00% | Relative abundance (%) Anaerotruncus (cecal microbiota; genus, 100-mg/kg dose): 0.00% | Relative abundance (%) Bacillus (cecal microbiota; genus, 100-mg/kg dose): 0.37% | Relative abundance (%) Butyricicoccus (cecal microbiota; genus, 100-mg/kg dose): 1.53% | Relative abundance (%) Clostridiales vadin BB60 group (cecal microbiota; genus, 100-mg/kg dose): 0.00% | Relative abundance (%) Clostridioides (cecal microbiota; genus, 100-mg/kg dose): 0.00% | Relative abundance (%) Clostridium sensu stricto 1 (cecal microbiota; genus, 100-mg/kg dose): 0.00% | Relative abundance (%) Enterococcus (cecal microbiota; genus, 100-mg/kg dose): 2.01% | Relative abundance (%) Erysipelatoclostridium (cecal microbiota; genus, 100-mg/kg dose): 14.71^b % | Relative abundance (%) Escherichia-Shigella (cecal microbiota; genus, 100-mg/kg dose): 13.77% | Relative abundance (%) Flavonifractor (cecal microbiota; genus, 100-mg/kg dose): 0.68^b % | Relative abundance (%) Lachnospiraceae (uncultured) (cecal microbiota; genus, 100-mg/kg dose): 0.73% | Relative abundance (%) Lactococcus (cecal microbiota; genus, 100-mg/kg dose): 0.40% | Relative abundance (%) Oscillibacter (cecal microbiota; genus, 100-mg/kg dose): 0.13% | Relative abundance (%) Paenibacillus (cecal microbiota; genus, 100-mg/kg dose): 0.00% | Relative abundance (%) Pediococcus (cecal microbiota; genus, 100-mg/kg dose): 1.38^b % | Relative abundance (%) Ruminiclostridium 5 (cecal microbiota; genus, 100-mg/kg dose): 0.28% | Relative abundance (%) Ruminiclostridium 9 (cecal microbiota; genus, 100-mg/kg dose): 0.78% | Relative abundance (%) Ruminococcacede UCG-005 (cecal microbiota; genus, 100-mg/kg dose): 2.19% | Relative abundance (%) Ruminococcus torques group (cecal microbiota; genus, 100-mg/kg dose): 10.37% | Relative abundance (%) UBA1819 (cecal microbiota; genus, 100-mg/kg dose): 0.68% | Relative abundance (%) Weissella (cecal microbiota; genus, 100-mg/kg dose): 2.43^a %
